The subject of one experiment is C. albicans. The experiment can be described thus: Neutrophil control of hyphal growth (swarming). Type of experiment: cell-based, Candida albicans. The conditions noted are these: neutrophils of SOT and SCT recipients, ex vivo. As for the experimental part:
Methods and Materials: Twenty-one SOT, 19 SCT and 23 healthy control patients (HC) were identified and consented at primary care/outpatient transplant clinics. Transplant recipients were enrolled at a time period two to four months post-transplant. Following consent and peripheral blood collection, neutrophils were freshly isolated and co-incubated with C. albicans and the percent remaining live yeast was measured using a viability dye compared to a standard control to determine fungal elimination by neutrophils. Growth inhibition of C. albicans was also quantified by neutrophil swarming to yeast spotted onto glass slides, assessed by live cell imaging with or without G-CSF. Effect of soluble factors on neutrophils function was determined by incubation of healthy neutrophils with SOT and SCT serum and measuring ability to control C. albicans.

The subject of experiment [1] is invasive fungal diseases (IFDs). The conditions noted are these: 41 patients; ref published case reports, PubMed and Embase, 1990–2020; cited from earlier work. From the text: Among the 41 patients with IFDs, were those with invasive candidiasis and invasive mould diseases, including those caused by Aspergillus spp., Mucorales, and Fusarium spp. Sixteen (39%) had baseline neutropenia and 27 (66%) were considered to be refractory to standard therapy prior to GM-CSF administration. Among the 41 patients with IFDs, complete responses were reported in 35 (85%) patients and partial response in 1 patient, with 5 patients having no or unclear response. || Previously published case reports on the use of GM-CSF for adjunctive treatment of IFDs are summarized in Table 2. […]

A further experiment relates to T. rubrum. As to the kind of experiment: Ergosterol content by HPLC. Type of experiment: cell-based, Trichophyton rubrum. The conditions noted are these: control 13.56 ± 0.35 mg%. Here is the method: (§1) Materials & Methods: The minimum inhibitory concentration (MIC) of honokiol was assessed by broth microdilution method against standard strains (Trichophyton rubrum ATCC 28188, Trichophyton mentagrophytes ATCC 9533), and clinical isolates (T. rubrum, T. ajelloi, Microsporum canis and M. gypseum). Evaluation of honokiol effect on ergosterol biosynthesis was assessed by high performance liquid chromatography. Checkerboard microtiter method was used to identify synergistic combinations of honokiol with terbinafine against Trichophyton rubrum ATCC 28188. The combinatorial effect was evaluated by calculating the fractional inhibitory concentration index (FICI).

The test system of experiment [2] is Trichophyton rubrum ATCC 28188. As to the kind of experiment: Checkerboard microtiter method with terbinafine. It counts as cell-based. The following applies: honokiol + terbinafine, additive interactions. As for the experimental part: as §1
For experiment [3], the system named is dermatophyte standard strains and clinical isolates. As to the kind of experiment: Broth microdilution MIC. It counts as cell-based, Trichophyton and Microsporum spp. The following applies: all tested strains. As for the experimental part: as §1
On the technique in general: In broth dilution the organism is exposed to a series of concentrations in liquid medium.

Experiment [4] has as its system Candida isolates from animals. The experiment can be described thus: CLSI M44-A2 disk diffusion. Type of experiment: cell-based, Candida spp. The conditions noted are these: 10 µg discs; all 10 isolates. Here is the method: Methods: Swab samples were plated on Sabouraud dextrose agar (SDA) with the addition of chloramphenicol. M. pachydermatis strains were identified by conventional laboratory methods and their ability to grow on SDA without lipid supplementation. The identification of Candida isolates was based on their phenotypic characterization and molecular methods using the universal ITS-1 and ITS-4 primers for amplification of the internal transcribed spacer 1 (ITS1), ITS2 regions and the 5.8S ribosomal DNA region followed by sequence-based identification. Susceptibility of Candida isolates was determined as described by the CLSI M44-A2 method using MCZ, CTZ and ITZ discs (10 µg, Neo-Sensitabs, Rosco, Denmark). Because the standard procedure for Candida susceptibility testing cannot be applied to M. pachydermatis, recommended modified protocol was used. The results were interpreted according to manufacturer’s guidelines.
Background: Agar diffusion results depend on both activity and mobility in agar.

In a further experiment the test system is C. auris. The experiment can be described thus: EUCAST and CLSI susceptibility, multicenter. It counts as cell-based, Candida auris. The conditions noted are these: Candidozyma auris, seven laboratories. As for the experimental part:
(§2) Methods: We performed a multicenter study to determine the antifugal susceptibility to AmB from AmBisome (provided by Gilead) using both CLSI and EUCAST protocols. We tested this activity against the most relevant clinical fungal species.Representative isolates from different geographical regions were included in the study. Other antifungals were evaluated (fluconazole, itraconazole, voriconazole, posaconazole, caspofungin, micafungin and anidulafungin).

A further experiment relates to C. glabrata. As to the kind of experiment: EUCAST and CLSI susceptibility, multicenter. The following applies: Nakaseomyces glabratus, seven laboratories. It counts as cell-based, Candida glabrata. Here is the method: as §2
Another experiment concerns C. parapsilosis. The experiment can be described thus: EUCAST and CLSI susceptibility, multicenter. Type of experiment: cell-based, Candida parapsilosis. The conditions noted are these: Lodderomyces parapsilosis, seven laboratories. Here is the method:
as §2

The test system of experiment [5] is other filamentous fungi, including Talaromyces marneffei. As to the kind of experiment: EUCAST and CLSI susceptibility, multicenter. The following applies: around, read-out: GM MIC, both methods. It counts as cell-based. Here is the method:
as §2

The subject of another experiment is A. nidulans. As to the kind of experiment: EUCAST and CLSI susceptibility, multicenter. Type of experiment: cell-based. The following applies: Aspergillus nidulans. Here is the method:
as §2

Another experiment relates to C. tropicalis. As to the kind of experiment: EUCAST and CLSI susceptibility, multicenter. Type of experiment: cell-based. The conditions noted are these: Candida tropicalis, seven laboratories. As for the experimental part:
as §2

Experiment [6] deals with Lomentospora prolificans and Cunninghamella bertholletiae. The experiment can be described thus: EUCAST and CLSI susceptibility, multicenter. Type of experiment: cell-based. Here is the method:
as §2

In a further experiment the test system is A. niger. The experiment can be described thus: EUCAST and CLSI susceptibility, multicenter. Type of experiment: cell-based. The following applies: Aspergillus niger. As for the experimental part: as §2
The next experiment concerns A. terreus. As to the kind of experiment: EUCAST and CLSI susceptibility, multicenter. Type of experiment: cell-based. The following applies: Aspergillus terreus. Here is the method: as §2
Experiment [7] deals with Candida albicans. As to the kind of experiment: EUCAST and CLSI susceptibility, multicenter. Type of experiment: cell-based. The following applies: seven laboratories. As for the experimental part: as §2
Another experiment concerns Aspergillus fumigatus. As to the kind of experiment: EUCAST and CLSI susceptibility, multicenter. Type of experiment: cell-based. As for the experimental part: as §2
Another experiment relates to A. flavus. The experiment can be described thus: EUCAST and CLSI susceptibility, multicenter. Type of experiment: cell-based. The following applies: Aspergillus flavus. Here is the method: as §2
Another experiment has as its system CDR1. As to the kind of experiment: Rhodamine 6G (R6G) efflux.
A further experiment relates to A. fumigatus conidia. As to the kind of experiment: Conidia killing by epithelial cells with sulfide donor. Type of experiment: cell-based, Aspergillus fumigatus. From the text: Materials & Methods: We deleted A. fumigatus genes to identify the enzymes primarily responsible for persulfidation as confirmed by fluorescence proteomic and microscopic analyses. We then used enzymatic assays, killing experiments and murine models to characterize the relevance of persulfidation for A. fumigatus virulence. We performed a genetic association study of the frequencies of a Single Nucleotide Polymorphism (SNP) in the human gene with the probability of suffering Invasive pulmonary aspergillosis (IPA) in hematopoietic stem cell transplant (HSCT) recipients. Next, we investigated the antifungal capacities of host cells using our engineered A549 cell line and alveolar macrophages and neutrophils derived from knock-out mice. Subsequenlty we investigated the interdependency of fungal and human persulfidation levels using Western-blot and fluorescence microscopy. Finally, we performed killing assays in the presence of a sulfide donor to potentiate host persulfidation.

A further experiment relates to Candida glabrata. As to the kind of experiment: CLSI M27-A3/M27-S4 MIC and MFC. Type of experiment: cell-based. As for the experimental part:
(§3) Methods & Materials: To evaluate the antifungal effect of each combination of nystatin and morencidine-like peptide, the protocol presented in CLSI M27-A3 and CLSI M27-S4 was used and the minimum inhibitory concentration was determined.

Experiment [8] relates to Candida albicans. As to the kind of experiment: CLSI M27-A3/M27-S4 MIC and MFC. Type of experiment: cell-based. Here is the method:
as §3

Another experiment relates to Candida tropicalis. The experiment can be described thus: CLSI M27-A3/M27-S4 MIC and MFC. Type of experiment: cell-based. Here is the method:
as §3

Experiment [9] relates to Scedosporium and Lomentospora species. As to the kind of experiment: Antifungal susceptibility tests. It counts as cell-based. As for the experimental part: (§4) Materials & Methods: Antifungal susceptibility tests and biofilm assay were performed to evaluate the activity of miltefosine against Scedosporium and Lomentospora species. Electron microscopy and fluorescent dyes, such as 2′,7′ –dichlorofluorescein diacetate and JC-1, were used to check the effects on cell integrity, oxidative stress and mitochondrial membrane potential, respectively. Miltefosine effects on fungal membrane were evaluated by fillipin staining, the susceptibility to membrane and cell wall stressors and the analysis of cell membrane permeability. Sinergystic assay was performed to check miltefosine interaction with current antifungal agents used in clinical settings.

Experiment [10] has the same test system. The experiment can be described thus: Biofilm assay. Type of experiment: cell-based. As for the experimental part:
as §4

≈ marks a conversion by molar mass, not a printed value. Like-named read-outs stand apart in the source and are kept apart here.

As to “Granulocyte-macrophage colony stimulating factor [GM-CSF]”, the “neutrophil ability to control hyphal growth” value in the experiment on C. albicans is recorded as “partially restored”. Further, the “complete responses, n (%)” value in experiment [1] was 35 (85%).
Consider `C=CCc1ccc(O)c(-c2ccc(O)c(CC=C)c2)c1` [honokiol, Honokiol], for which the ergosterol content with T. rubrum is recorded as 9.52 ± 0.43 mg%. For the same compound, in [2], the FICI was 0.53–0.75. Also, the MIC (in general, the lowest concentration found to suppress growth) in experiment [3] fell in the range of 8 to 16 µg/mL.
`Clc1ccccc1C(c1ccccc1)(c1ccccc1)n1ccnc1` [CTZ, clotrimazole]: in experiment [4], the susceptibility category result is recorded as “susceptible”.
On to `C[C@@H]1[C@H](O)[C@@H](C)/C=C/C=C/C=C/C=C/C=C/C=C/C=C/[C@H](O[C@@H]2O[C@H](C)[C@@H](O)[C@H](N)[C@@H]2O)C[C@@H]2O[C@](O)(C[C@@H](O)C[C@@H](O)[C@H](O)CC[C@@H](O)C[C@@H](O)CC(=O)O[C@H]1C)C[C@H](O)[C@H]2C(=O)O` [AmB from AmBisome, Amphotericin B], for which the MIC amounted to 0.31 µg/mL (≈ 0.335 µM) in the experiment with C. auris (read-out: GM MIC, CLSI); 0.46 µg/mL (≈ 0.498 µM) in the experiment on C. auris (read-out: GM MIC, EUCAST); 0.33 µg/mL (≈ 0.357 µM) with C. glabrata (read-out: GM MIC, CLSI); 0.34 µg/mL (≈ 0.368 µM) in the experiment on C. glabrata (read-out: GM MIC, EUCAST); 0.38 µg/mL (≈ 0.411 µM) in the experiment on C. parapsilosis (read-out: GM MIC, CLSI); 0.36 µg/mL (≈ 0.39 µM) in the experiment with C. parapsilosis (read-out: GM MIC, EUCAST). Besides, the MIC is 0.2 to 0.5 µg/mL (≈ 0.216 to 0.541 µM) in experiment [5]; 0.9 µg/mL (≈ 0.974 µM) in the experiment with A. nidulans (read-out: GM MIC, CLSI); 1.7 µg/mL (≈ 1.84 µM) in the experiment on A. nidulans (read-out: GM MIC, EUCAST); 0.31 µg/mL (≈ 0.335 µM) in the experiment with C. tropicalis (read-out: GM MIC, CLSI); 0.36 µg/mL (≈ 0.39 µM) in the experiment on C. tropicalis (read-out: GM MIC, EUCAST); 0.36 µg/mL (≈ 0.39 µM) with A. niger (read-out: GM MIC, CLSI). Further, the MIC with A. niger (read-out: GM MIC, EUCAST) is 0.22 µg/mL (≈ 0.238 µM); with A. terreus (read-out: GM MIC, CLSI), 1.4 µg/mL (≈ 1.52 µM); in the experiment on A. terreus (read-out: GM MIC, EUCAST), 2 µg/mL (≈ 2.16 µM); with Candida albicans [7] (read-out: GM MIC, CLSI) it was 0.21 µg/mL (≈ 0.227 µM); with Candida albicans [7] (read-out: GM MIC, EUCAST) it was 0.23 µg/mL (≈ 0.249 µM); in the experiment on Aspergillus fumigatus (read-out: GM MIC, CLSI) it was 0.64 µg/mL (≈ 0.693 µM). Also, the MIC was determined as 0.65 µg/mL (≈ 0.703 µM) in the experiment with Aspergillus fumigatus (read-out: GM MIC, EUCAST); 1.1 µg/mL (≈ 1.19 µM) in the experiment on A. flavus (read-out: GM MIC, CLSI); 1.7 µg/mL (≈ 1.84 µM) with A. flavus (read-out: GM MIC, EUCAST). In addition, the “activity, in words” value in experiment [6] is given as “lowest activity”.
For the compound Milbemycin oxim A3, the R6G efflux phenotype result in the experiment with CDR1 is listed as “mimicked efflux phenotypes of cdr1∆ mutants”.
As for `C1COCCN1.COc1ccc(P(=S)(S)N2CCOCC2)cc1` (centres unmarked) [GY4137], in the experiment with A. fumigatus conidia, the “conidia killing capacity of epithelial cells” value was “enhanced”.
`C[C@@H]1[C@H](O)[C@@H](C)/C=C/C=C/CC/C=C/C=C/C=C/C=C/C(O[C@H]2O[C@H](C)[C@@H](O)[C@H](N)[C@@H]2O)CC2O[C@](O)(CC(O)C(O)CCC(O)CC(O)CC(O)CC(=O)O[C@H]1C)CC(O)C2C(=O)O` (some centres unmarked) [nystatin]: the results for the “MIC (maximum inhibitory effect)” value in the experiment on Candida glabrata, in the experiment on Candida albicans [8] and with Candida tropicalis were 1.25 µg/mL, 1.25 µg/mL and 0.625 µg/mL, respectively.
The compound `CCCCCCCCCCCCCCCCOP(=O)([O-])OCC[N+](C)(C)C` [Miltefosine, miltefosine] showed an inhibitory concentration in experiment [9] of 2 to 4 µg/mL. In [10], the biofilm formation entry is recorded as “reduced biofilm formation”.
